Tests used:
[1] = tested on: RAW 264.7 cells; assay: LPC(O)/LPE(O) supplementation with different SN1 compositions in RAW 264.7 cells, PE(P) level and composition; format: cell-based, mouse; settings: 20 μM, 24 hours
Method: A mouse macrophage cell line, RAW 264.7 was used for this study. The cells were cultured at 37° C. with 5% CO2 in Roswell Park Memorial Institute (RPMI) 1640 medium containing L-glutamine with 1% sodium pyruvate (Gibco, USA) and 10% fetal bovine serum (Gibco, USA). The cells were passaged every week and the media replenished every two to three days until passage 30, at which point these cells were discarded. The cells were seeded in a 12-well plate at a concentration of 300,000 cells/ml of media and allowed to grow until they reached 80% confluency.
To assess the incorporation of plasmalogen precursors into cellular plasmalogens, cells were supplemented with compounds with different SN1 compositions, i.e., varying proportions of O-16:0, O-18:0, and O-18:1 of LPC(O) or LPE(O) at a concentration of 20 μM (Table 14). The plasmalogen precursors, LPC(O), and LPE(O), were dissolved in chloroform:methanol (2:1), evaporated under a stream of nitrogen gas at 40° C., and then reconstituted in RPMI medium with 2% bovine serum albumin (Sigma-Aldrich, USA). The control treatment for the cells consisted of RPMI with 2% bovine serum albumin. Once prepared, the media containing the precursors were vortexed and sonicated in an ultrasonic water bath (Soniclean, Adelaide, SA, Australia) for 15 minutes.
Lipids were extracted from cells using the butanol-methanol method, following established protocols. […] These vials were then frozen at −80° C. until they were ready for mass spectrometry analysis.
A targeted lipidomic approach using LC-MS/MS, following a previously published protocol (Huynh, et al., “High-Throughput Plasma Lipidomics: Detailed Mapping of the Associations with Cardiometabolic Risk Factors,” Cell Chem. Biol., 2019 Jan. 17; 26(1):71-84.e4, doi: 10.1016/j.chembiol.2018.10.008), was utilised for the samples from this study. […] Multiple lipid species belonging to different lipid classes including phosphatidylcholine (PC), alkylphosphatidylcholine [PC(O)], alkenylphosphatidylcholine [PC(P)], phosphatidylethanolamine (PE), alkylphosphatidylethanolamine [PE(O)], alkenylphosphatidylethanolamine [PE(P)] or PE plasmalogen, lysophosphatidylcholine (LPC), lysoalkylphosphatidylcholine [LPC(O)], lysoalkenylphosphatidylcholine [LPC(P)], lysophosphatidylethanolamine (LPE), lysoalkylphosphatidylethanolamine [LPE(O)], lysoalkenylphosphatidylethanolamine [LPE(P)], triacylglycerol (TG) and alkyldiacylglycerol [TG(O)] were measured. The lipid species measured in this study are listed in Supplementary Table 1, which is included at the end of this Example. […]
For data processing, vendor software Qualitative Analysis B.07.00 and QQQ Quantitative Analysis B.10.0.0 were utilized. Relative quantification of lipid species was determined by comparing them to the corresponding internal standards. […]

[2] = tested on: 3T3-L1 cells; assay: LPC(O)/LPE(O) supplementation with different SN1 compositions in 3T3-L1 cells, PE(P) level and composition; format: cell-based, mouse; settings: 20 μM, 24 hours
Excerpt: The method employed in this study was the same as described in example 5, with the exception of the cell line and culture medium used. For this study, a mouse fibroblast/pre-adipocyte cell line, 3T3-L1, was utilised and cultured in Dulbecco's Modified Eagle Medium (DMEM) (Gibco, USA), supplemented with 1% sodium pyruvate (Gibco, USA) and 10% newborn calf serum (Gibco, New Zealand).

CCCCCCCCCCCCCCCCOC[C@@H](O)COP(=O)([O-])OCC[N+](C)(C)C [LPC(O-16:0) 100%] was tested, and the “efficacy in elevating the endogenous PE(P) level” value [1] was “greater efficacy”.
For CCCCCCCCCCCCCCCCOC[C@@H](O)COP(=O)(O)OCCN [LPE(O-16:0) 100%], the “efficacy in elevating the endogenous PE(P) level” value [1] was “equal effectiveness”.
For CCCCCCCCCCCCCCCCCCOC[C@@H](O)COP(=O)(O)OCCN [LPE(O-18:0) 100%], the “efficacy in elevating the endogenous PE(P) level” value [1] was “equal effectiveness”.
CCCCCCCC/C=C\CCCCCCCCOC[C@@H](O)COP(=O)(O)OCCN [LPE(O-18:1) 100%] was tested, and the “efficacy in elevating the endogenous PE(P) level” value [1] was “comparatively less effective” and the “cellular PE(P) levels” value [2] was “appeared to reduce these levels”.

Source: US20260217743A1, “ETHER OF PHOSPHATIDYLCHOLINE AND PHOSPHATIDYLETHANOLAMINE, THEIR LYSO-FORMS AND MIXTURE THEREOF FOR USE IN THE TREATMENT OF A DISEASE OR DISORDER CAUSED BY A DEFICIENCY IN PLASMALOGENS” (Baker Heart and Diabetes Institute, priority 2023, published 2026)
